Reference: the NIST ThermoML archive (doi:10.1016/j.jct.2013.01.033)
± gives the expanded uncertainty stated by the source.

Columns and labels:
[1] = refractive index (Na D-line) (dimensionless); settings: 293.15 K; 101.33 kPa; Liquid; Standard Abbe refractometry
[2] = 101.33 kPa, Liquid, Vibrating tube method

refractive index [1]	mass density ([2]; 298.15 K) [kg/m3]	mass density ([2]; 308.15 K) [kg/m3]	mass density ([2]; 318.15 K) [kg/m3]	mass density ([2]; 328.15 K) [kg/m3]	mass density ([2]; 338.15 K) [kg/m3]	mass density ([2]; 348.15 K) [kg/m3]	Structure (SMILES)
1.38432 ± 0.0007							CCCO [propan-1-ol]
	1006.71 ± 0.85	1000.55 ± 0.84	994.44 ± 0.83	988.41 ± 0.82	982.44 ± 0.82	976.52 ± 0.81	CCCC[N+]1(C)CCCC1.N#CC(=C=[N-])C#N [1-butyl-1-methylpyrrolidinium tricyanomethanide]
